According to publication PMC10239507, “Development of allosteric and selective CDK2 inhibitors for contraception with negative cooperativity to cyclin binding” (Nature Communications, 2023):
“Also recorded” adds a separate entry of the source.

What was measured:
[1] = biological target: T1, GST-tagged CDK2 (Homo sapiens, UniProt P24941); experiment: Surface plasmon resonance (SPR), CDK2; type: binding
T1 construct: The gene encoding human CDK2 (1-298) was custom-synthesized; made in house; host or cells: E. coli BL21 DE3 RIPL

[2] = biological target: T2, CDK2 (C118A C177S A93C R157C) (Homo sapiens, UniProt P24941, A93C/C118A/C177S/R157C); experiment: Intramolecular FRET assay of CDK2 activation loop position; type: binding
T2 construct: made in house; cyclin A: BL21(DE3)pLysS

[3] = test system: CDK/cyclin complexes; experiment: Commercial CDK/cyclin kinase activity panel (Reaction Biology); type: biochemical; conditions: concentration well above its KD
[4] = biological target: human CDK2 (1-298) (Homo sapiens, UniProt P24941); experiment: Isothermal titration calorimetry (ITC)

Molecule | fold slower dissociation rate than the allosteric inhibitors [1] [fold] | Kd [2] [nM] | inhibition of CDK/cyclin complexes [3] | Kd [4] [nM] | T∆S ([4]; ITC, 25 °C) [kcal/mol] | n (binding stoichiometry) ([4]; ITC, 25 °C) | ∆H ([4]; ITC, 25 °C) [kcal/mol]
cyclin: Bovine cyclin A (171-432 with a C-terminal 6His tag) | ≥ 10 |  |  |  |  |  | 
O=C(O)c1cc(C(F)(F)F)ccc1NCCc1c[nH]c2cc(Cl)ccc12 [Compound 4, 2-((2-(6-Chloro-1H-indol-3-yl)ethyl)amino)−5-(trifluoromethyl)benzoic Acid] |  | 280 | poorly inhibits; also recorded: does not substantially inhibit any CDK/cyclin complex | 31 | 4.8 | 1.39 | -5.5
